Measurements taken from PubChem BioAssay (NCI).
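Here, GI50 denotes the concentration required for 50% inhibition of growth. TGI marks complete inhibition of growth.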

What was measured:
Assay in all cases: DTP human tumour cell line panel, 384-well format
786-0 renal = tested on: 786-0 renal
A498 renal = tested on: A498 renal
A549 NSCLC = tested on: A549 NSCLC
ACHN renal = tested on: ACHN renal
CAKI-1 renal = tested on: CAKI-1 renal
CCRF-CEM leukemia = tested on: CCRF-CEM leukemia
COLO 205 colon = tested on: COLO 205 colon
DU-145 prostate = tested on: DU-145 prostate
EKVX NSCLC = tested on: EKVX NSCLC
HCT-15 colon = tested on: HCT-15 colon
HL-60(TB) leukemia = tested on: HL-60(TB) leukemia
HOP-62 NSCLC = tested on: HOP-62 NSCLC
HOP-92 NSCLC = tested on: HOP-92 NSCLC
HS 578T breast = tested on: HS 578T breast
HT29 colon = tested on: HT29 colon
IGROV1 ovarian = tested on: IGROV1 ovarian
K-562 leukemia = tested on: K-562 leukemia
MCF7 breast = tested on: MCF7 breast
MDA-MB-231 breast = tested on: MDA-MB-231 breast
MDA-MB-435 melanoma = tested on: MDA-MB-435 melanoma
MDA-MB-468 breast = tested on: MDA-MB-468 breast
NCI-H226 lung = tested on: NCI-H226 lung
NCI-H322M lung = tested on: NCI-H322M lung
NCI-H460 NSCLC = tested on: NCI-H460 NSCLC
NCI-H522 lung = tested on: NCI-H522 lung
NCI/ADR-RES ovarian = tested on: NCI/ADR-RES ovarian
OVCAR-3 ovarian = tested on: OVCAR-3 ovarian
OVCAR-4 ovarian = tested on: OVCAR-4 ovarian
OVCAR-5 ovarian = tested on: OVCAR-5 ovarian
OVCAR-8 ovarian = tested on: OVCAR-8 ovarian
PC-3 prostate = tested on: PC-3 prostate
RPMI-8226 leukemia = tested on: RPMI-8226 leukemia
RXF 393 renal = tested on: RXF 393 renal
SF-268 CNS = tested on: SF-268 CNS
SF-295 CNS = tested on: SF-295 CNS
SF-539 CNS = tested on: SF-539 CNS
SK-MEL-2 melanoma = tested on: SK-MEL-2 melanoma
SK-MEL-28 melanoma = tested on: SK-MEL-28 melanoma
SK-MEL-5 melanoma = tested on: SK-MEL-5 melanoma
SK-OV-3 ovarian = tested on: SK-OV-3 ovarian
SNB-19 CNS = tested on: SNB-19 CNS
SNB-75 CNS = tested on: SNB-75 CNS
SR leukemia = tested on: SR leukemia
SW-620 colon = tested on: SW-620 colon
UACC-257 melanoma = tested on: UACC-257 melanoma
UACC-62 melanoma = tested on: UACC-62 melanoma
UO-31 renal = tested on: UO-31 renal

`O=C1CC(c2ccc(N3CCOCC3)cc2)(c2ccsc2)NC(=O)C1Sc1ccccc1Cl` (stereo not drawn) was tested, and the GI50 ([…]-0 renal) was 2.71 µM, the TGI (786-0 renal) was greater than 21.3 µM and the GI50 (A498 renal) was 18.5 µM. For the same molecule, the TGI (A498 renal) was greater than 88.7 µM, the GI50 (A549 NSCLC) was greater than 80.4 µM and the TGI (A549 NSCLC) was greater than 100 µM. For the same molecule, the GI50 (ACHN renal) was 33 µM, the TGI (ACHN renal) was 98.7 µM and the GI50 (CAKI-1 renal) was 52.7 µM. For the same molecule, the TGI (CAKI-1 renal) was greater than 100 µM, the GI50 (CCRF-CEM leukemia) was 3.39 µM and the TGI (CCRF-CEM leukemia) was greater than 21.9 µM. The GI50 (COLO 205 colon) was greater than 100 µM, the TGI (COLO 205 colon) was greater than 100 µM and the GI50 (DU-145 prostate) was 53.9 µM. The TGI (DU-145 prostate) was greater than 100 µM, the GI50 (EKVX NSCLC) was 98.9 µM and the TGI (EKVX NSCLC) was greater than 100 µM. It also gave a GI50 (HCT-15 colon) of 63 µM, a TGI (HCT-15 colon) greater than 100 µM and a GI50 (HL-60(TB) leukemia) of 2.82 µM. It also gave a GI50 (HOP-62 NSCLC) of 13.6 µM, a TGI (HOP-62 NSCLC) greater than 100 µM and a GI50 (HOP-92 NSCLC) of 3.34 µM. It also gave a TGI (HOP-92 NSCLC) of 18.7 µM, a GI50 (HS 578T breast) of 1.76 µM and a TGI (HS 578T breast) of 3.69 µM. The GI50 (HT29 colon) was 62.7 µM, the TGI (HT29 colon) was greater than 100 µM and the GI50 (IGROV1 ovarian) was 46.5 µM. It also gave a TGI (IGROV1 ovarian) greater than 100 µM, a GI50 (K-562 leukemia) of 3.97 µM and a TGI (K-562 leukemia) greater than 100 µM. The GI50 (MCF7 breast) was greater than 73.7 µM, the TGI (MCF7 breast) was greater than 100 µM and the GI50 (MDA-MB-231 breast) was 13.9 µM. It also gave a TGI (MDA-MB-231 breast) greater than 100 µM, a GI50 (MDA-MB-435 melanoma) greater than 100 µM and a TGI (MDA-MB-435 melanoma) greater than 100 µM. For the same molecule, the GI50 (MDA-MB-468 breast) was greater than 100 µM, the TGI (MDA-MB-468 breast) was greater than 100 µM and the GI50 (NCI-H226 lung) was 50.3 µM. For the same molecule, the TGI (NCI-H226 lung) was greater than 100 µM, the GI50 (NCI-H322M lung) was greater than 100 µM and the TGI (NCI-H322M lung) was greater than 100 µM. The GI50 (NCI-H460 NSCLC) was 9.07 µM, the TGI (NCI-H460 NSCLC) was 98.5 µM and the GI50 (NCI-H522 lung) was 6.42 µM. For the same molecule, the TGI (NCI-H522 lung) was greater than 100 µM, the GI50 (NCI/ADR-RES ovarian) was 19.4 µM and the TGI (NCI/ADR-RES ovarian) was 41.5 µM. It also gave a GI50 (OVCAR-3 ovarian) of 34.2 µM, a TGI (OVCAR-3 ovarian) greater than 100 µM and a GI50 (OVCAR-4 ovarian) of 34 µM. It also gave a TGI (OVCAR-4 ovarian) greater than 100 µM, a GI50 (OVCAR-5 ovarian) of 67.7 µM and a TGI (OVCAR-5 ovarian) greater than 100 µM. The GI50 (OVCAR-8 ovarian) was 3.45 µM, the TGI (OVCAR-8 ovarian) was 18.2 µM and the GI50 (PC-3 prostate) was 43.6 µM. It also gave a TGI (PC-3 prostate) greater than 100 µM, a GI50 (RPMI-8226 leukemia) of 10.5 µM and a TGI (RPMI-8226 leukemia) of 41.2 µM. The GI50 (RXF 393 renal) was 2.58 µM, the TGI (RXF 393 renal) was 7.47 µM and the GI50 (SF-268 CNS) was 51.2 µM. It also gave a TGI (SF-268 CNS) greater than 100 µM, a GI50 (SF-295 CNS) of 35.7 µM and a TGI (SF-295 CNS) greater than 100 µM. The GI50 (SF-539 CNS) was 23.3 µM, the TGI (SF-539 CNS) was greater than 100 µM and the GI50 (SK-MEL-2 melanoma) was greater than 56.1 µM. The TGI (SK-MEL-2 melanoma) was greater than 100 µM, the GI50 (SK-MEL-28 melanoma) was 66.7 µM and the TGI (SK-MEL-28 melanoma) was greater than 100 µM. The GI50 (SK-MEL-5 melanoma) was greater than 100 µM, the TGI (SK-MEL-5 melanoma) was greater than 100 µM and the GI50 (SK-OV-3 ovarian) was greater than 85.3 µM. The TGI (SK-OV-3 ovarian) was greater than 100 µM, the GI50 (SNB-19 CNS) was 16.9 µM and the TGI (SNB-19 CNS) was 63.8 µM. It also gave a GI50 (SNB-75 CNS) greater than 100 µM, a TGI (SNB-75 CNS) greater than 100 µM and a GI50 (SR leukemia) of 0.692 µM. It also gave a TGI (SR leukemia) of 1.74 µM, a GI50 (SW-620 colon) of 16.7 µM and a TGI (SW-620 colon) greater than 51.8 µM. It also gave a GI50 (UACC-257 melanoma) greater than 100 µM, a TGI (UACC-257 melanoma) greater than 100 µM and a GI50 (UACC-62 melanoma) of 12.7 µM. It also gave a TGI (UACC-62 melanoma) greater than 100 µM, a GI50 (UO-31 renal) of 33.7 µM and a TGI (UO-31 renal) greater than 100 µM.
